The text below walks through data of patent US11471446B2, “Compounds for treatment of hypoproliferative disorders” (LU LICENSE AB, priority 2015, dated 2022).

In assay [1] the test system is RPS19-deficient murine erythroid progenitor cells. Kind of assay: Phenotypic assay for rescued cell proliferation of murine RPS19-deficient erythroid progenitor cells. Type of assay: cell-based, mouse. The settings on record: for Emax / pEC50: Mus musculus, Erythroid progenitor cell; for Emax: maximal proliferation rescue, read-out: ECMAX (% rescue); for pEC50: proliferation rescue of RPS19-deficient erythroid progenitor cells; for rescue of proliferation (in words): RPS19-deficient murine erythroid progenitor cells. An excerpt: Correction of reduced proliferative capacity of RPS19-deficient erythroid progenitors was used as readout in a phenotypic screen for novel drug candidates.

For assay [2] the following is noted: known from Saito et al.; cited from earlier work.
Assay [3] addresses T1, CDK19 (Homo sapiens (Human), UniProt Q9BWU1). In words: 18 selected kinases panel, DiscoveRx LeadHunter Discovery Services. Type of assay: binding. The settings on record: tested on 18 selected kinases. The procedure:
DBA-4 was tested on 18 selected kinases by DiscoveRx LeadHunter™ Discovery Services.

For assay [4], the target named is T1, CDK19. In words: KinomeScan (DiscoveRx) on 468 kinases. Type of assay: binding. The settings on record: 0.5 μM. An excerpt: (§1) Arrows point at CDK8 and CDK19.
(§2) In particular, a compound may be considered to be a CDK8 and/or CDK19 inhibitor if it can inhibit CDK8 and/or CDK19 at a concentration as defined herein above using the KinomeScan assay.

The next assay has as its target CDK8 (Homo sapiens (Human), UniProt P49336). Kind of assay: KinomeScan (DiscoveRx) on 468 kinases. Type of assay: binding. To be noted: 0.5 μM.
From the text: as §1, §2

Assay [5] has as its system RPS19-deficient erythroid progenitor cells. In words: 7-AAD FACS, cell survival of RPS19-deficient erythroid progenitors. Type of assay: cell-based, mouse. An excerpt:
(§3) In addition, the selective CDK8/CDK19 inhibitors DBA-7 and DBA-8 both rescued RPS19-deficient erythroid progenitor cells from apoptosis (FIG. 7) and loss of kit+ progenitor cell maintenance in culture (FIG. 8).

Assay [6] shares this test system. In words: c-kit FACS, maintenance of c-kit+ progenitor cells in culture of RPS19-deficient erythroid progenitors. Type of assay: cell-based, mouse.
From the text: FIG. 8: The selective CDK8/CDK19 inhibitors DBA-7 and DBA-8 rescue the loss of c-kit+ progenitor cell observed in in vitro culture of RPS19-deficient erythroid progenitors.
as §3

Assay [7] has as its system DBA patient CD34+ cells. In words: Proliferation of erythroid DBA patient CD34+ cells in vitro. Format: cell-based, human. The settings on record: 200 nM; day 14 of culture. The procedure: 5000 peripheral blood CD34+ cells from healthy donors or DBA patients were plated in serum free medium containing human stem cell factor and Epo to support expansion of erythroid progenitors and precursor cells. […] All three CDK8-inhibitors promote proliferation of DBA patient cells.
(§4) To confirm that CDK8/CDK19 inhibitors rescue erythropoiesis also in human DBA patient cells, CD34+ cells were isolated from healthy donors and DBA patients. CD34+ cells were cultured in conditions supporting expansion of erythroid progenitors and precursors. Three CDK8/CDK19 inhibitors and vehicle control were added to the cultures.

For assay [8], the system named is DBA patient CD34+ cells. In words: Erythroid maturation of DBA patient cells in vitro (CD71/CD235a flow cytometry). The settings on record: 200 nM; day 8 of culture; compared to DMSO. Format: cell-based, human. The procedure:
Cells were cultured in the same conditions as in FIG. 9 and analysed by flow cytometry at day 8 of culture. CD71 is a positive marker for early erythroid progenitors while CD71 and CD235a positive cells are mature erythroid precursors.
as §4
(In general: Flow cytometry measures light scatter and fluorescence of single cells or particles in a stream.)

The test system of the next assay is RPS19-deficient mice. In words: Reticulocyte counts in RPS19-deficient mouse model for DBA. Format: in vivo. The settings on record: oral 10 mg/kg every 12 hours, 5 doses; peripheral blood 48 hours after last treatment. On the procedure:
Treatment was stopped after 5 doses. 48 hours after last treatment peripheral blood was analysed for reticulocyte counts, which reflects the ongoing production of erythrocytes.
Treatment is stopped after 5 doses. 48 hours after last treatment peripheral blood is analysed for reticulocyte counts, which reflects the ongoing production of erythrocytes. Reticulocyte counts is rescued in RPS19-deficient mice treated with the selective CDK8/CDK19 inhibitors tested. In addition to rescue of reticulocyte and haemoglobin levels, other effects of the tested CDK8/CDK19 inhibitors are determined, in particular their ability to rescue bone marrow hypocellularity, to promote hemapopoetic stem and progenitor development, as well as cell cycle arrest and apoptosis.

Structures are written as SMILES. pEC50: −log10 of the molar value. Entries after “also recorded” stand apart in the source; their conditions may differ. Counter-ions that a name gives are not always drawn.

T1 sequence (Q9BWU1 whole entry): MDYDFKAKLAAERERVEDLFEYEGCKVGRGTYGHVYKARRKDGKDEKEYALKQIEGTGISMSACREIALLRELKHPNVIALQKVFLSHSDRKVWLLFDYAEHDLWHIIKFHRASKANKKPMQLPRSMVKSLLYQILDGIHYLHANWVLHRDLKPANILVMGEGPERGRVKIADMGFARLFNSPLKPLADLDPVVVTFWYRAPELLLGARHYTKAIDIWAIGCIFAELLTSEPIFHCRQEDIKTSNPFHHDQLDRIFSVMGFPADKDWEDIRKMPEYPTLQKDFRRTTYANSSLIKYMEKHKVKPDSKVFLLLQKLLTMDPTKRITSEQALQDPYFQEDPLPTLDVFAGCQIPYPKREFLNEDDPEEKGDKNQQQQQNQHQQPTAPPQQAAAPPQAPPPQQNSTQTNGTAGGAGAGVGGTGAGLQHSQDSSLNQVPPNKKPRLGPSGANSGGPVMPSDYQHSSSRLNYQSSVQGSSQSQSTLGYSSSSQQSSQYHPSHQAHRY
CDK8, sequence (P49336 whole entry): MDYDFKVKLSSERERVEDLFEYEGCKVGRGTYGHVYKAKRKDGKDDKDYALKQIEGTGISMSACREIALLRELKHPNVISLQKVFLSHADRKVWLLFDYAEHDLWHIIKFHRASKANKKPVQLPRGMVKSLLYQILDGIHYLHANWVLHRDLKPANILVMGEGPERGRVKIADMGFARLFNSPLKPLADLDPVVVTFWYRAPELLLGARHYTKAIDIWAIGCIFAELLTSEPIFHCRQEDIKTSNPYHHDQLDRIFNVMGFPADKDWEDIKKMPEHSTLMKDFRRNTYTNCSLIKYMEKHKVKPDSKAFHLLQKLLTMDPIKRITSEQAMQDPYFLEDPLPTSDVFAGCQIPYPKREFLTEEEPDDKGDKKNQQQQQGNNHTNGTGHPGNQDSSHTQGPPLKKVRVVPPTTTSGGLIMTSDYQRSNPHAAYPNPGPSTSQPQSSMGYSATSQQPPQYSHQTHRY

As a reminder, the pEC50 is the EC50 on a negative log10 scale, so that one unit is a factor of ten. High values mean a small EC50, low ones a large EC50. For `CN(C)c1ccnc2sc(C(N)=O)c(N)c12` [DBA-1], in assay [1], the Emax came out at 25%, the pEC50 was 5.92 and the “rescue of proliferation (in words)” value is listed as “partial dose-dependent rescue of proliferation; also recorded: potent”. The bone anabolic effect result in assay [2] is given as “effect as bone anabolic agents”.
On to `COc1ccc(-c2cc(C3CC3)nc3sc(C(N)=O)c(N)c23)cc1` [DBA-2], for which, in assay [1], the Emax turned out to be 45%, the pEC50 was 4.82 and the “rescue of proliferation (in words)” value is “potent”.
Taken in the same sequence, the figures for `CCc1nc2sc(C(N)=O)c(N)c2c2c1CCCC2` [DBA-3] were 38%, 4.96 and “potent”.
Turning to `COCc1cc(C)nc2sc(C(N)=O)c(N)c12` [DBA-4], in [1], the Emax was found to be 28%, the pEC50 was 5.55 and the “rescue of proliferation (in words)” value was “potent”. Moreover, the “inhibition of CDK19” value against CDK19 [3] is reported as “inhibited”.
For `Cc1c(C(N)=O)sc2nc(C(F)(F)F)cc(N)c12` [DBA-5], in [1], the Emax is 21%, the pEC50 is 5.77 and the “rescue of proliferation (in words)” value is “potent”.
Turning to `NC(=O)c1sc2nccc(N3CCCN(c4ccccc4)CC3)c2c1N` [DBA-6], in [1], the Emax came out at 30% and the “rescue of proliferation (in words)” value is “partial dose-dependent rescue of proliferation; also recorded: potent”. Further, the bone anabolic effect result in assay [2] is listed as “effect as bone anabolic agents”.
Take `CN(C)C(=O)Cc1ccc(N2CCCN(c3ccnc4sc(C(N)=O)c(N)c34)CC2)cc1` [DBA-7]: in assay [1], the Emax was found to be 82%, the pEC50 is 7.60 and the “rescue of proliferation (in words)” value is recorded as “potent; also recorded: partial dose-dependent rescue of proliferation”. At CDK19 [4], the “inhibition of CDK19” value is reported as “very selectively inhibited”. The “inhibition of CDK8” value on CDK8 is on record as “very selectively inhibited”. For the same compound, the “rescue from apoptosis (7-AAD)” value in assay [5] is reported as “rescued”. In [6], the “rescue of loss of kit+ progenitor cell maintenance in culture” value is given as “rescued”. Moreover, the “proliferation of DBA patient cells (cell counts)” value (shortened to “proliferation … (cell counts)”) in the assay on DBA patient CD34+ cells [7] is reported as “rescue proliferation”. In addition, the “erythroid maturation of DBA patient cells (CD71, CD235a)” value (“erythroid maturation” for short) in the assay with DBA patient CD34+ cells [8] is “increase erythroid maturation”. For the same compound, the bone anabolic effect entry in assay [2] is “effect as bone anabolic agents”.
Take `N#Cc1ccc2ncnc(NCCc3ccccc3)c2c1` [DBA-8, reference compound]: in [1], the Emax was 80%, the pEC50 is 6.30 and the “rescue of proliferation (in words)” value is listed as “partial dose-dependent rescue of proliferation”. Also, in assay [5], the “rescue from apoptosis (7-AAD)” value is “rescued”. Besides, in [6], the “rescue of loss of kit+ progenitor cell maintenance in culture” value is listed as “rescued”.
With `CN1CCN(C(=O)c2ccc3cc(CCNc4ncnc5ccc(C#N)cc45)ccc3c2)CC1` [DBA-9], the Emax in [1] came to 60%. In the assay on RPS19-deficient mice, the reticulocyte counts entry is on record as “rescued”. The “proliferation … (cell counts)” value with DBA patient CD34+ cells [7] is “rescue proliferation”. In addition, in the assay on DBA patient CD34+ cells [8], the “erythroid maturation” value was “increase erythroid maturation”.
With `Cc1c(Br)c(Br)c2c3c1nc(N1CCNCC1)n3CCC2` [DBA-10, 7,8-dibromo-9-methyl-2-(piperazin-1-yl)-5,6-dihydro-4H-imidazo[4,5,1-ij]quinoline hydrochloride, reference compound], in assay [1], the Emax was 60% and the pEC50 was 7.70. Further, the “proliferation … (cell counts)” value in the assay on DBA patient CD34+ cells [7] is given as “rescue proliferation”. Further, the “erythroid maturation” value in the assay on DBA patient CD34+ cells [8] is reported as “increase erythroid maturation”.
As for `Cn1cc(-c2ccc(-c3cncc(Cl)c3N3CCC4(CCNC4=O)CC3)cc2)cn1` [DBA-11, 8-[3-chloro-5-[4-(1-methyl-1H-pyrazol-4-yl)phenyl]-4-pyridinyl]-2,8-diazaspiro[4.5]decan-1-one, reference compound], in assay [1], the Emax worked out at 50% and the pEC50 was 7.70.
